Results as given in PubChem BioAssay (NCI).
Where “and” joins values, the source holds several entries; their conditions need not be identical. Equal values may be shown once.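 How tested: cells in 96-well plates exposed to compound for 48 hours at five concentrations. At the GI50, growth is halved. At the TGI there is no net growth.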

How the values were obtained:
Assay in all cases: DTP human tumour cell line panel, 48 h
COLO 205 colon = test system: COLO 205 colon
DU-145 prostate = test system: DU-145 prostate
HCT-15 colon = test system: HCT-15 colon
MDA-MB-231 breast = test system: MDA-MB-231 breast
MDA-MB-435 = test system: MDA-MB-435
NCI-H460 lung = test system: NCI-H460 lung
RPMI-8226 leukemia = test system: RPMI-8226 leukemia
SK-MEL-5 melanoma = test system: SK-MEL-5 melanoma
SNB-19 CNS = test system: SNB-19 CNS
SR leukemia = test system: SR leukemia

SMILES	GI50 (COLO 205 colon)	TGI (COLO 205 colon)	GI50 (DU-145 prostate) [µM]	TGI (DU-145 prostate)	GI50 (HCT-15 colon)	TGI (HCT-15 colon)	GI50 (MDA-MB-231 breast) [µM]	TGI (MDA-MB-231 breast) [µM]	GI50 (MDA-MB-435)	TGI (MDA-MB-435)	GI50 (NCI-H460 lung)	TGI (NCI-H460 lung)	GI50 (RPMI-8226 leukemia) [µM]	TGI (RPMI-8226 leukemia) [µM]	GI50 (SK-MEL-5 melanoma)	TGI (SK-MEL-5 melanoma)	GI50 (SNB-19 CNS)	TGI (SNB-19 CNS)	GI50 (SR leukemia)	TGI (SR leukemia) [µM]
Cc1cc2c3ccccc3ccc2[n+]2ccccc12	1.95 µM	8.31 µM	9.02	40.4 µM	37.9 µM	> 100 µM	18.5	> 100	8.56 µM	26.6 µM	8.81 µM	28.1 µM	8.7	80.3	1.63 µM	3.78 µM	2.11 µM	8.72 µM	2.25 µM	12.9
NC(CSc1nc2ccccn2c1[N+](=O)[O-])C(=O)O (configuration not stated)		> 100 µM		> 100 µM		> 100 µM		> 100		> 100 µM		> 100 µM		> 100		> 100 µM		> 100 µM		> 100
O=c1oc2ccc(Cl)cc2c(=O)n1-c1cc(C(F)(F)F)cc(C(F)(F)F)c1	1.78 µM	3.72 µM	0.372	13.9 µM	0.306 µM	1.78 µM	0.289	4.36	0.313 µM	2.07 µM	0.308 µM	5.16 µM	0.188	0.712	0.138 µM	0.336 µM	0.293 µM	11.7 µM	0.308 µM	> 51
COC(=O)c1ccc2c(c1)C(=O)c1c-2n(CCCN)c(=O)c2cc([N+](=O)[O-])ccc12	0.0737 µM	1.69 µM	< 0.0159	0.391 µM	0.0625 µM	0.56 µM	0.426	0.96	0.105 µM	1.44 µM	0.0434 µM	1.1 µM	< 0.01	0.117	< 0.0405 µM	0.8 µM	< 0.0205 µM	1.87 µM	< 0.01 µM	0.367
ICCC(c1ccccc1)(c1ccccc1)c1ccccc1	2.02 µM	3.85 µM	10.1	21.6 µM	3.56 µM	15.5 µM	4.41	19.8	2.14 µM	6.72 µM			3.72	17.1	3.23 µM	11.2 µM	14.4 µM	31.1 µM	1.93 µM	5
O=Cc1ccc(Oc2c3ccccc3nc3occc23)cc1	21.8 µM	63 µM	17.6	43.7 µM				22.5	6.49 µM	24.7 µM	20.2 µM	48.2 µM	12.2	48.3			28.8 µM	> 100 µM	16 µM	44.7
O=C1OC(C2=CC(=O)c3ccccc3C2=O)C(Cl)=C1Cl (configuration not stated)		> 100 µM		> 100 µM		41 µM		36		> 100 µM		> 100 µM		47.3		> 100 µM		> 100 µM		70.3
Nc1c(C(=O)c2cccc(C#CCN3CCOCC3)c2)cnn1-c1ccc(F)cc1	7.97 µM	> 25 µM	> 25	> 25 µM	11.2 µM	> 25 µM	> 25	> 25	4.41 µM	> 17.4 µM	> 16.5 µM	> 25 µM	> 20.8	> 25	8.88 µM	> 25 µM	> 25 µM	> 25 µM	4.09 µM	> 25
CC1(C)CC(OCCCC[P+](c2ccccc2)(c2ccccc2)c2ccccc2)CC(C)(C)N1O	0.202 µM	0.402 µM	0.409	7.75 µM	2.78 µM	9.12 µM	0.252	0.832	0.301 µM	1.15 µM	0.282 µM	1.52 µM	0.019	0.133	0.163 µM	0.358 µM	0.317 µM	2.2 µM	0.273 µM	1.54
O=C(O)CCCSc1nc2ccccc2s1		> 100 µM		> 100 µM		> 100 µM		> 100		> 100 µM		> 100 µM		> 100		> 100 µM		> 100 µM		> 100
Nc1ccn(C2CC(O)C(CO)O2)c(=O)n1 (configuration not stated)	> 5000 µM	> 5000 µM	> 5000	> 5000 µM	> 5000 µM	> 5000 µM	> 5000	> 5000	> 5000 µM	> 5000 µM	> 5000 µM	> 5000 µM	> 5000	> 5000	> 5000 µM	> 5000 µM	> 5000 µM	> 5000 µM	> 5000 µM	> 5000
CCCCCCCCCCCC[n+]1ccccc1	0.868 µM	2.66 µM	2.21	11.6 µM	2.61 µM	16.4 µM	1.34	3.4	1.18 µM	3.22 µM	1.76 µM	4.58 µM	0.29	1.67	1.06 µM	2.26 µM	1.3 µM	2.94 µM	0.202 µM	2.15
CC1(C)CC(=O)c2c(ccc(C(=O)C[C@H](N)CO)c2N)O1	4.92 µM and 2.07 µM	17.5 µM and > 33.3 µM		17.5 µM and > 33.3 µM	0.768 µM and 0.114 µM	17.5 µM and 9.09 µM	> 17.5	> 17.5	15.3 µM and 4.47 µM	17.5 µM and > 33.3 µM	0.89 µM and 0.129 µM	17.5 µM and > 33.3 µM	4.62	17.5	2.87 µM and 5.08 µM	17.5 µM and > 33.3 µM	5.07 µM and 1.41 µM	17.5 µM and > 33.3 µM	0.612 µM and 0.0752 µM	
CN1CCN(Cc2ccc(NC(=O)c3nc4ccc5[nH]ncc5c4c4c3CCC4)cc2C(F)(F)F)CC1	7.27 µM	14.7 µM	0.944	1.76 µM	0.87 µM	1.75 µM	0.924	1.68	0.926 µM	1.71 µM	0.926 µM	1.73 µM	1.14	2.82	7.47 µM	14.1 µM	0.976 µM	2.11 µM	1.1 µM	2.68
Cc1ncc(C(=O)Nc2ccc(CN3CCN(C)CC3)c(C(F)(F)F)c2)cc1C#Cc1cnc(N)c2ncccc12	0.0424 µM	1.61 µM	0.18	2.08 µM	0.0752 µM	1.79 µM	0.0801	1.18	0.0419 µM	1.58 µM	0.0869 µM	2.15 µM	0.538	3.98	1.02 µM	4.44 µM	2.16 µM	5.33 µM	0.472 µM	
O=C(O)C[O][Sb][O]CC(=O)O			> 100	> 100 µM	> 100 µM	> 100 µM	> 100	> 100	> 100 µM	> 100 µM	> 100 µM	> 100 µM			> 100 µM	> 100 µM	> 100 µM	> 100 µM	> 100 µM	> 100
CC[C@H](C)[C@H](NC(=O)Nc1ccccc1)C(=O)N(C)[C@H](C[C@@H](OC(C)=O)c1nc(C(=O)N[C@@H](Cc2ccccc2)C[C@H](C)C(=O)OC)cs1)C(C)C	3.17 µM	18.2 µM	3.94	> 100 µM	3.58 µM	> 100 µM	3.36	22.1	0.416 µM	1.86 µM	2.83 µM	> 100 µM	2.03	> 100	1.73 µM	12.4 µM	5.05 µM	> 100 µM		
COc1ccc(-c2cc(-c3cn[nH]c3-c3ccccn3)ccn2)cc1	> 25 µM	> 25 µM	> 25	> 25 µM	> 25 µM	> 25 µM	> 25	> 25	> 19.2 µM	> 25 µM	> 25 µM	> 25 µM	> 25	> 25	> 25 µM	> 25 µM	> 25 µM	> 25 µM		
CC1=CC2=C(C(N)=O)C(=O)OC2(C)C(c2ccccc2)C1 (configuration not stated)				> 100 µM		> 100 µM		> 100		> 100 µM		> 100 µM		> 100				> 100 µM		> 100
COc1ccc2c(c1)sc1nc(-c3ccccc3)c(-c3ccc(O)c(OC)c3)n12	5.3 µM	34.6 µM	35.4	> 100 µM	4.03 µM	> 100 µM	9.8	> 100	1.42 µM	5.59 µM	6.51 µM	> 100 µM			3.64 µM	> 100 µM	32.5 µM	> 100 µM	3.34 µM	> 100
CO/N=C(/COc1c(-c2ccccc2)oc2ccccc2c1=O)c1ccc(OC)cc1	> 100 µM	> 100 µM	> 100	> 100 µM	> 100 µM	> 100 µM	31.3	> 100	30.7 µM	> 100 µM			41.9	> 100					9.1 µM	53.4
